Laboratory results published in patent US20100267712A1, “ISOINDOLINE COMPOUNDS FOR THE TREATMENT OF SPINAL MUSCULAR ATROPHY AND OTHER USES” (The United States of America, as represented by the …, priority 2007, published 2010).

How the values were obtained:
[1] = test system: SMN2-linked luciferase-reporter gene construct; assay: SMN Splice Reporter Assay (SMN2-linked luciferase reporter); type: cell-based; conditions: for EC50: cervical carcinoma cell lines, SMN2 splice luciferase reporter; for Fold Increase: fold-increase of luciferase over baseline reading of transformed cells without any test compound
Procedure, shortened: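 Cervical carcinoma cells carrying an SMN2-luciferase splicing reporter, in-frame only with exon 7 inclusion, were treated with compound. Luciferase activity reported as fold increase over untreated transformed cells, with EC50 derived.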

[2] = test system: SMN-containing gems in type 1 SMA patient fibroblasts (3813 cells); assay: SMN-containing gem count in SMA patient fibroblasts; type: cell-based, human; conditions: 48 hours, 3813 fibroblasts
Text: SMN protein can be found in punctate nuclear particles called “gems” (Liu and Dreyfuss, EMBO J, 15 (14): 3555-3565 (1996)). In fibroblast cells derived from SMA patients, the number of gems corresponds to disease severity as follows: severe type 1 patients have approximately 5 gems per 100 nuclei; mild type 3 patients have 20-50 gems per 100 nuclei; normal individuals have approximately 100-150 gems per 100 nuclei (Coovert et al., Hum Mol Genet, 6 (8): 1205-1214 (1997), Young et al., Exp Cell Res, 265 (2): 252-261 (2001)).
Gems are detectable by immunohistochemistry and gem counts in patient fibroblasts have been used to test the ability of compounds to increase SMN protein levels (Mattis et al., Hum Genet, 120: 589-601 (2006)). Following these methods, fibroblast cells from a type 1 SMA patient (3813 cells, Coriell Cell Repositories) were treated for 48 hours with a compound of the invention. The cells were then fixed and incubated with a monoclonal antibody against SMN (4B7, Wolstencroft et al., Hum Mol Genet, 14: 1199-1210 (2005)). A FITC-conjugated anti-mouse secondary antibody was used to visualize the labeled gems. A positive control in these experiments was provided by fibroblasts from the same patient treated with 1000 μM valproic acid.

SMN protein [3] = assay: Western blot of total cellular SMN protein in SMA type I fibroblasts; type: cell-based, human; conditions: 48 hours, 3813 cells
Experimental: Western blots were performed using standard methods. SMA type I fibroblasts (3813 cells; Coriell Cell Repositories) were treated with compounds for 48 hours. Monoclonal SMN anti-SMN antibody 4B7 (Wolstencroft et al., Hum Mil Genet, 14:1199-1210 (2005)) was used to identify SMN protein. Tubulin was used as an internal normalization standard. DMSO treatment serves as the negative control.

[4] = test system: translational stop codon read-through, human SMN2 open reading frame-luciferase; assay: Translational read-through luciferase reporter assay (luciferase preceded by the open reading frame of the human SMN2 gene); type: cell-based
Text: This assay was similar in design to that described in WO 01/44516 A2. This was a cell-based luciferase reporter assay designed to detect translational read-through via insertion of a translational stop codon within the coding sequence that includes luciferase. In the presence of compounds that promote read-through of translational stop codons, active luciferase was produced and detected via chemiluminescence. Compounds of the invention typically were active in three versions of this assay: luciferase reporter containing a UGA stop codon, luciferase reporter containing a UAG stop codon, which is the first stop codon downstream of the improper splice junction between exons 6 and 8 in the human SMN2 transcript, and luciferase preceded by the open reading frame of the human SMN2 gene.

SMN protein [5] = conditions: cited from earlier work
SMA model mouse fetuses = conditions: administered in utero; cited from earlier work

EC50 [1] [nM] | EC50 [4] [nM] | Structure (SMILES) | Fold Increase [1] | Average number of gems per 100 nuclei ([2]; 1 μM compound) | maximal fold induction [4] | further results
45 | – | COc1ccc2c(c1)C(=O)N(c1ccc3c(ccn3C)c1)C2 [Example 118417] | 1.485 | – | – | Average number of gems per 100 nuclei ([2]; 3 μM compound): 53
102 | – | COc1ccc2c(c1)C(=O)N(c1ccc3ccsc3c1)C2 [Example 118739] | 1.617 | 76 | – | –
59 | 4280 | COc1ccc2c(c1)C(=O)N(c1ccc3occc3c1)C2 [Example 119047] | 1.456 | – | 2.04 | Average number of gems per 100 nuclei ([2]; 0.1 μM compound): 32; SMN:Tubulin ratio as % of Vehicle Control (SMN protein [3]; 0.1 μM): 125.19%
68 | 1840 | CCCc1ccc2c(c1)C(=O)N(c1ccc3c(ccn3C)c1)C2 [Example 119522] | 1.557 | 6 | 1.73 | –
112 | 1350 | Cn1ccc2cc(N3Cc4ccc(OC(F)F)cc4C3=O)ccc21 [Example 119537] | 1.604 | – | 2.12 | Average number of gems per 100 nuclei ([2]; 0.1 μM compound): 31
106 | – | COc1ccc2c(c1)C(=O)N(c1ccc3cc[nH]c3c1)C2 [Example 119869] | 1.716 | 49 | – | –
20 | – | COc1ccc2c(c1)C(=O)N(c1ccc3c(c1)CCCN3C)C2 [Example 120121] | 1.702 | – | – | Average number of gems per 100 nuclei ([2]; 0.1 μM compound): 16
30 | – | COc1ccc2c(c1)C(=O)N(c1ccc3ncccc3c1)C2 [Example 120286] | 1.713 | – | – | Average number of gems per 100 nuclei ([2]; 0.1 μM compound): 132
114 | – | COc1ccc2c(c1)C(=O)N(c1ccc3c(c1)cc(C)n3C)C2 [Example 120595] | 1.531 | 32 | – | –
126 | 1720 | COc1ccc2c(c1)C(=O)N(c1ccc3ncsc3c1)C2 [Example 120596] | 1.591 | – | 2.23 | Average number of gems per 100 nuclei ([2]; 0.1 μM compound): 148; SMN:Tubulin ratio as % of Vehicle Control (SMN protein [3]; 1 μM): 124.41%
154 | 1110 | COc1ccc2c(c1)C(=O)N(c1ccc3cn[nH]c3c1)C2 [Example 120602] | 1.412 | – | 2.12 | Average number of gems per 100 nuclei ([2]; 0.1 μM compound): 68; SMN:Tubulin ratio as % of Vehicle Control (SMN protein [3]; 1 μM): 123.67%
142 | – | O=C1c2cc(OC(F)F)ccc2CN1c1ccc2ncccc2c1 [Example 120790] | 1.926 | 27 | – | –
203 | – | CC(=O)Nc1ccc2c(c1)C(=O)N(c1ccc3ccn(C)c3c1)C2 [Example 121505] | 1.817 | 47 | – | –
69 | 350 | CCOc1ccc2c(c1)C(=O)N(c1ccc3c(ccn3C)c1)C2 [Example 121789] | 1.461 | 10 | 1.79 | –
101 | – | CCC(C)c1ccc2c(c1)C(=O)N(c1ccc3c(ccn3C)c1)C2 (stereo not shown) [Example 122182] | 1.539 | 18 | – | –
187 | – | Cn1ccc2cc(N3Cc4ccc(N5CCCC5)cc4C3=O)ccc21 [Example 122317] | 1.47 | 45 | – | –
88 | 2640 | Cc1cc2cc(N3Cc4ccc(Cl)cc4C3=O)ccc2n1C [Example 123011] | 1.481 | 37 | 1.89 | –
99 | 91 | Cc1cc2cc(N3Cc4ccc(N(C)C)cc4C3=O)ccc2n1C [Example 123707] | 1.635 | – | 1.44 | Average number of gems per 100 nuclei ([2]; 0.1 μM compound): 53
2630 | 1900 | COc1ccc2c(c1)C(=O)N(c1ccc3c(c1)cc(C)n3C(C)C)C2 [Example 123714] | 1.863 | 84 | 1.18 | –
9 | – | CN(C)c1ccc2c(c1)C(=O)N(c1ccc3ncccc3c1)C2 [Example 124032] | 1.659 | 65 | 1.02 | –
170 | 129 | CC(C)Oc1ccc2c(c1)C(=O)N(c1ccc3ccn(C)c3c1)C2 [Example 124326] | 1.666 | 98 | 0.946 | SMN:Tubulin ratio as % of Vehicle Control (SMN protein [3]; 3 μM): 147.687%
24 | – | CN(C)c1ccc2c(c1)C(=O)N(c1ccc3c(ccn3C)c1)C2 [Example 124429] | 1.594 | 44 | – | –
47 | – | Cn1ccc2ccc(N3Cc4ccc(N5CCCC5)cc4C3=O)cc21 [Example 124596] | 1.681 | 43 | – | –
347 | – | COc1ccc2c(c1)C(=O)N(c1ccc3cc(C)n(C)c3c1)C2 [Example 124597] | 1.358 | 42 | – | –
43 | 4210 | CN(C)c1ccc2c(c1)C(=O)N(c1ccc3ccn(C)c3c1)C2 [Example 124771] | 1.689 | 50 | 1.8 | –
– | – | CC(C(=O)O)c1ccc(N2Cc3ccccc3C2=O)cc1 (stereo not shown) [Indoprofen, indoprofen] | – | – | – | luciferase activity ([1]; result in words): increases luciferase activity; production of SMN from the endogenous SMN2 gene (SMN protein [5]; SMA patient fibroblasts): increase in production of SMN; level of expression of SMN protein (SMN protein [5]; cultured cells, Lunn et al. 2004): increases the level of expression of SMN protein; survival of SMA model mouse fetuses (SMA model mouse fetuses): increase survival
